Test results from US20050124683A1, “HIV protease inhibitors, compositions containing the same, their pharmaceutical uses and materials for their synthesis” (priority 2003, published 2005).
Like-named read-outs stand apart in the source and are kept apart here.

Tests used:
[1] = target: T1, HIV-1 protease (Human immunodeficiency virus type 1 group M subtype B, UniProt P04585, Q495S); test: HIV-1 Protease RET assay (Ki, resonance energy transfer); assay type: biochemical; details: Q7S mutant HIV-1 protease; read-out: Ki (nm)
T1 construct: made in house
Protocol: Ki's for the inhibitors of HIV-1 protease were determined using a resonance energy transfer (RET) assay. […] This enzyme is first partially purified as inclusion bodies from cell lysate. It is then solublized in 8M urea and passed through a Q-Sepharose column (Pharmacia) for further purification. To refold this protein, samples containing Q7S is dialyzed into 50 mM sodium phosphate pH 7.0, 50 mM NaCl, 10 mM DTT, and 10% glycerol.
The commercially available peptide substrate (Molecular Probes Cat. # H-2930) RE(EDANS)SQNYPIVQK(DABCYL)R is used to assess activity and Ki's. This peptide is cleaved quantitatively by HIV-1 Pr at the Tyr-Pro bond. The EDANS fluorophore absorbs at 340 nm and emits at 490 nm. The reaction is carried out in a 96 well plate in a total volume of 100 µL and is run for 12 minutes at 37C under steady-state conditions with 5 µM substrate and 2 nM active dimer enzyme concentration. The literature value Km for this substrate and enzyme is 103+/−8 μM (See Matayoshi, et al., “Novel Fluorogenic Substrates for Assaying Retroviral Proteases by Resonance Energy Transfer,” Science 247, 954 (1990)). The buffer for this reaction is 0.1M sodium acetate pH 4.8, 1M NaCl, 1 mM EDTA, 5 mM dithiothreitol, 10% dimethyl sulfoxide and 1 mg/ml bovine serum albumin. Inhibition curves are fit using the Morrison tight binding equation.

[2] = system: HIV-1; test: Antiviral EC50 in HIV-infected T-cell lines (CPE inhibition / susceptibility assays); assay type: cell-based; details: Human immunodeficiency virus 1, T-cell
Protocol: T-cell lines, CEM-SS, and MT-2, and viruses HIV-1 RF and HIV-1 NL4-3 (pNL4-3) were obtained from the National Institutes of Health (AIDS Research and Reference Reagent Program, Bethesda, MD).
The ability of compounds to protect cells against HIV infection was measured by the […] dye reduction method, essentially as described (See Pauwels, R. Balzarini, J. Baba, M. Snoeck, R. Schols, D. Herdewijn, P. Desmyter, J. and De Clercq, E. 1988, “Rapid and automated tetrazolium-based colorimetric assay for the detection of anti-HIV compounds,”. J Virol. Methods., 20: 309-321 and Weislow, O. S. Kiser, R. Fine, D. L. Bader, J. Shoemaker, R. H. and Boyd, M. R. 1989. “New soluble-formazan assay for HIV-1 cytopathic effects: application to high-flux screening of synthetic and natural products for AIDS-antiviral activity”. J. Natl. Cancer Inst. 81:577-586). Subject cells were infected with test virus at an moi of 0.025 to 0.819 or mock infected with medium only and added at 2×10^4 cells per well into 96 well plates containing half-log dilutions of test compounds. Six days later, 50 μl of XTT (1 mg/ml XTT tetrazolium, […] phenazine methosulfate) was added to the wells and the plate was reincubated for four hours. Viability, as determined by the amount of XTT formazan produced, was quantified spectrophotometrically by absorbance at 450 nm. Data from CPE assays were expressed as the percent of formazan produced in compound-treated cells compared to formazan produced in wells of uninfected, compound-free cells. The fifty percent effective concentration (EC50) was calculated as the concentration of compound that effected an increase in the percentage of formazan production in infected, compound-treated cells to 50% of that produced by uninfected, compound-free cells. The 50% cytotoxicity concentration (CC50) was calculated as the concentration of compound that decreased the percentage of formazan produced in uninfected, compound-treated cells to 50% of that produced in uninfected, compound-free cells. The therapeutic index was calculated by dividing the cytotoxicity (CC50) by the antiviral activity (EC50).
Compounds were tested in phenotypic susceptibility assays at Virologic, Inc., (See Petropoulos C. J., Parkin N. T., Limoli K. L., Lie Y. S., Wrin T., Huang W., Tian H., Smith D., Winslow G. A., Capon D J, Whitcomb J M. 2000, “A novel phenotypic drug susceptibility assay for human immunodeficiency virus type 1,” Antimicrob Agents Chemother 44(4):920-928) or using the assay described here. MT-2 cells were infected with either HIV-1 NL4-3 or HIV-1 NL4-3(I84V/L90M) and incubated in the presence of serial 0.5 log dilutions of test compounds. Three days later, culture supernatants were collected and virus production, as determined by p24 ELISA, was assayed. Percent inhibition was calculated as p24 concentration in compound-treated samples as compared to infected, compound-free controls. Inhibition of viral replication is determined by measuring reduction in HIV p24 present in the culture supernatant, using a Beckman-Coulter p24 HIV-1 Ag EIA kit and following the supplied protocol. Absorbance is read on a MRX microplate reader (Dynex Technologies). The EC50 was calculated as the concentration of compound that effected a decrease in the p24 production by infected, compound-treated cells to 50% of that produced by infected, compound-free cells.

[3] = read-out: EC50 (wt) (nm), wt virus
[4] = read-out: Ave. EC50, average, unit inferred

SMILES | Ki [1] | EC50 [2, 3] | EC50 [2, 4]
C=CCNC(=O)[C@H]1N(C(=O)[C@@H](O)[C@H](Cc2ccccc2)NC(=O)c2cccc3c2CCN3)CC(F)(F)C1(C)C | < 0.1 nM | 16 nM | 
C=CCNC(=O)[C@H]1N(C(=O)[C@@H](O)[C@H](Cc2cccc(C(F)(F)F)c2)NC(=O)c2cccc(O)c2C)CC(F)(F)C1(C)C | < 0.1 nM | 42 nM | 
C=CCNC(=O)[C@H]1N(C(=O)[C@@H](O)[C@H](Cc2cccc(F)c2)NC(=O)c2cc(C)cc(O)c2C)CC(F)(F)C1(C)C | < 0.1 nM | 25 nM | 
Cc1cc(O)c(C)c(C(=O)N[C@@H](Cc2cccc(F)c2)[C@H](O)C(=O)N2CC(F)(F)C(C)(C)[C@H]2C(=O)NCc2ccccc2F)c1 | < 0.1 nM | 6.7 nM | 
CC[C@@H](COC)NC(=O)[C@H]1N(C(=O)[C@@H](O)[C@H](Cc2ccccc2)NC(=O)c2cc(C)cc(O)c2C)CC(F)(F)C1(C)C | < 0.1 nM | 30 nM | 
CCNC(=O)[C@H]1N(C(=O)[C@@H](O)[C@H](Cc2ccccc2)NC(=O)c2c(C)ccc(O)c2C)CC(F)(F)C1(C)C | < 0.1 nM | 35 nM | 
CCC(C)NC(=O)[C@H]1N(C(=O)[C@@H](O)[C@H](Cc2ccccc2)NC(=O)c2cccc(O)c2C)CC(F)(F)C1(C)C (some centres unmarked) | < 0.1 nM | 31 nM | 
CCC(C)NC(=O)C1N(C(=O)C(O)C(Cc2ccccc2)NC(=O)c2cc(C)cc(O)c2C)CC(F)(F)C1(C)C (centres unmarked) | < 0.1 nM | 16 nM | 
Cc1ccc(O)c(C)c1C(=O)N[C@@H](Cc1ccccc1)[C@H](O)C(=O)N1CC(F)(F)C(C)(C)[C@H]1C(=O)NCC(C)C | < 0.1 nM | 44 nM | 
CCCNC(=O)[C@H]1N(C(=O)[C@@H](O)[C@H](Cc2ccccc2)NC(=O)c2c(C)ccc(O)c2C)CC(F)(F)C1(C)C | < 0.1 nM | 33 nM | 
C=CCNC(=O)[C@H]1N(C(=O)[C@@H](O)[C@H](Cc2cccc(F)c2)NC(=O)c2cccc3c2CCN3)CC(F)(F)C1(C)C | < 0.1 nM | 35 nM | 
Cc1cc(O)c(C)c(C(=O)N[C@@H](Cc2ccccc2)[C@H](O)C(=O)N2CC(F)(F)C(C)(C)C2C(=O)NCC(C)C)c1 (some centres unmarked) | < 0.1 nM | 31 nM | 
CC(C)CNC(=O)[C@H]1N(C(=O)[C@@H](O)[C@H](Cc2ccccc2)NC(=O)c2cccc3c2CCN3)CC(F)(F)C1(C)C | < 0.1 nM | 35 nM | 
Cc1cc(O)c(C)c(C(=O)N[C@@H](Cc2cccc(F)c2)[C@H](O)C(=O)N2CC(F)(F)C(C)(C)C2C(=O)NCC(C)C)c1 (some centres unmarked) | < 0.1 nM | 11 nM | 
Cc1c(O)cccc1C(=O)N[C@@H](Cc1cccc(F)c1)[C@H](O)C(=O)N1CC(F)(F)C(C)(C)C1C(=O)NCC(C)C (some centres unmarked) | < 0.1 nM | 13 nM | 
CC(C)CNC(=O)[C@H]1N(C(=O)[C@@H](O)[C@H](Cc2cccc(F)c2)NC(=O)c2cccc3c2CCN3)CC(F)(F)C1(C)C | < 0.1 nM | 42 nM | 
CCCCNC(=O)[C@H]1N(C(=O)[C@@H](O)[C@H](Cc2cccc(F)c2)NC(=O)c2cccc(O)c2C)CC(F)(F)C1(C)C | < 0.1 nM | 32 nM | 
Cc1cc(O)c(C)c(C(=O)N[C@@H](Cc2cccc(F)c2)[C@H](O)C(=O)N2CC(F)(F)C(C)(C)[C@H]2C(=O)NCC(F)(F)F)c1 | < 0.1 nM | 14 nM | 
CCCNC(=O)[C@H]1N(C(=O)[C@@H](O)[C@H](Cc2ccccc2)NC(=O)c2cc(C)cc(O)c2C)CC(F)(F)C1(C)C [Example D14, (S)-4,4-Difluoro-1-1-[(2S,3S)-2-hydroxy-3-(3-hydroxy-2,5-dimethyl-benzoylamino)-4-phenyl-butyryl]-3,3-dimethyl-pyrrolidine-2-carboxylic acid propylamide] |  |  | 9 nM
Cc1cc(O)c(C)c(C(=O)N[C@@H](Cc2ccccc2)[C@H](O)C(=O)N2CC(F)(F)C(C)(C)[C@H]2C(=O)NCC(C)C)c1 [Example D15, (S)-4,4-Difluoro-1-1-[(2S,3S)-2-hydroxy-3-(3-hydroxy-2,5-dimethyl-benzoylamino)-4-phenyl-butyryl]-3,3-dimethyl-pyrrolidine-2-carboxylic acid isobutyl-amide] |  |  | 11 nM
